The results in this text go back to article PMC8151276, “An Integrated Approach toward NanoBRET Tracers for Analysis of GPCR Ligand Engagement” (Molecules, 2021).

One experiment concerns the target T1, CHRM2 (Homo sapiens, UniProt P08172).
T1 construct: purchased Promega (in-house HiBiT-GPCR construct library, NanoBRET)
T1 sequence (P08172 1-466): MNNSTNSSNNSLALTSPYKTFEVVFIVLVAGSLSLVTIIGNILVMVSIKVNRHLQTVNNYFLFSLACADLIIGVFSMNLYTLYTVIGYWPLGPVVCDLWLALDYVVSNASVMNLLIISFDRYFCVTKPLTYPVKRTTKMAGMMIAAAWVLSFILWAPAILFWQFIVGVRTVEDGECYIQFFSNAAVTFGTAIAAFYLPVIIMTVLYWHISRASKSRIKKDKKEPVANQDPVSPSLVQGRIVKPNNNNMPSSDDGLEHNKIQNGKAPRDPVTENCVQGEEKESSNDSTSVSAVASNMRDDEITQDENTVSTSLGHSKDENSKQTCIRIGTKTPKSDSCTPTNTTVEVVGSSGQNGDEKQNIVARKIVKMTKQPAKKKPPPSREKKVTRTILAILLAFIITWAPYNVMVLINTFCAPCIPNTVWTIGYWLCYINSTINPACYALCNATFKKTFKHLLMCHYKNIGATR
Put plainly: NanoBRET screen HiBiT-CHRM2 in HEK293. It is filed as binding. The procedure:
(§1) Each tracer candidate was screened across the entire library of HiBiT-GPCR constructs using NanoBRET as the detection modality. As depicted in Figure 4A, the specificity of interactions was evaluated through decrease in BRET due to competitive displacement of a bound tracer by excess parental compound. Each tracer was analyzed for binding to each HiBiT-GPCR fusion in the absence and in the presence of competing parental compound. Briefly, HEK293 cells were transfected with HiBiT-GPCR constructs diluted into promoterless DNA to reduce expression and maximize translocation to the cell surface. Each tracer candidate was then screened at concentrations of 1 μM and 0.1 μM across cells expressing these fusions. Cells were treated for 1.5 h with tracer either alone or in the presence of 20 μM competing parental compound (i.e., control). BRET was measured upon addition of purified LgBiT and subsequent complementation with HiBiT genetically fused to a GPCR. The specificity of interactions was assessed through a decrease in BRET signal due to competitive displacement of the bound tracer. To further gauge the robustness of these interactions, the fold response over the control (i.e., BRETtracer/BRETcontrol) was calculated. We chose a 1.5-fold response, which translates to ≥7-fold signal over noise as the minimal threshold required to score an interaction as positive.
(§2) HiBiT-GPCR DNA constructs were diluted in 10 mM Tris pH 8 to a final concentration of 0.01 μg/μL, arrayed in 96-well plates and stored at −20 °C. For transfection, HEK293 cells were suspended in Opti-MEM (without phenol red) supplemented with 2% fetal bovine serum (Seradigm) and 100 units/mL penicillin–streptomycin (Gibco) at a final concentration of 220,000 cells/mL and dispensed into white 96-well plates at 90 μL/well. Subsequent transfections and screens were carried using an Agilent Bravo Automated Liquid Handling Platform. First, the 96-well HiBiT DNA arrays were diluted 25-fold in Opti-MEM (without serum or phenol red) to a final concentration of 0.0004 μg/μL and 20 μL of the diluted DNAs were transferred into new 96-well plates. Next, promoterless carrier DNA (1 μg/μL) was diluted 25-fold (0.04 μg/μL) and then dispensed into the diluted arrays at 20 μL/well. Following brief mixing, Viafect transfection reagent (Promega) diluted 16-fold into Opti-MEM was dispensed into the plates at 40 μL/well. After mixing by pipetting, plates were incubated for 10 min on the pipetting station deck. The DNA-transfection reagent complexes were then added to plates containing cells. To facilitate the screen, 10 μL of DNA-transfection reagent complexes were added in duplicates to the top 4 and bottom 4 rows, resulting in two identical 48-well arrays per plate. Plates with transfected cells were incubated for 18–20 h at 37 °C/5% CO2. A screen of each tracer across the entire library using two different concentrations requires duplicate plates of transfected cells. Depending on the number of tracers being screened, transfections can be scaled up using the same ratios. The next day, for each tracer, four 20× screening solutions in tracer dilution buffer (Promega) were prepared: two duplicates at final concentration of 20 μM and two duplicates at a final concentration of 2 μM. […] The four resulting solutions were diluted 4-fold in Opti-MEM without serum or phenol red to generate 5× solutions (5 µM and 0.5 µM tracer +/− 100 μM competing compound). To screen the library, a BioTek MultiFlo FX liquid dispenser was used to dispense 22.5 µL of tracer solution to the top 4 rows and 22.5 µL tracer + competing compound solution to the 4 bottom rows. Plates were briefly mixed on an orbital shaker and incubated for 1.5 h at room temperature. […] Plates were briefly mixed on an orbital shaker and incubated for 15 min to allow complementation.

In a further experiment the target is T2, NPSR1 (Homo sapiens, UniProt Q6W5P4).
T2 construct: purchased Promega (in-house HiBiT-GPCR construct library, NanoBRET)
T2 sequence (Q6W5P4 1-371): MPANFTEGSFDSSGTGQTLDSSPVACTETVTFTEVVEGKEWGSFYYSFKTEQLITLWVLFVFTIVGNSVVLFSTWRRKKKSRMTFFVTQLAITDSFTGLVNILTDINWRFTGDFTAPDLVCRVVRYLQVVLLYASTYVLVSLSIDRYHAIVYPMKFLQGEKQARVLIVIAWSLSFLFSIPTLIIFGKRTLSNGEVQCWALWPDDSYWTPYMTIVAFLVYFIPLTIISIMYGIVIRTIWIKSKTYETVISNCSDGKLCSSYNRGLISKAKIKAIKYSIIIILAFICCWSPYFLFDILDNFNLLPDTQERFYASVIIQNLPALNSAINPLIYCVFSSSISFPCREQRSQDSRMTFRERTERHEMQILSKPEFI
Put plainly: NanoBRET screen HiBiT-NPSR1 in HEK293. It counts as binding. The method, then: as §1, §2

The mark [1] stands for this setting: tracer at 0.1μM, listed as amitriptyline-b-2-NB590.
[2] abbreviates: tracer at 1μM, listed as amitriptyline-b-2-NB590.

`COc1ccc2c(n1)c(CCNC(C)=O)cn2CCNC(=O)CCc1ccc2n1[B-](F)(F)[N+]1=C(c3ccc[nH]3)C=CC1=C2` [Azamelatonin-1-NB590]: the “NanoBRET Fold Response” value was 0.80 at CHRM2 (0.1μM tracer), 1.35 at CHRM2 (1μM tracer), 0.96 on NPSR1 (0.1μM tracer) and 0.84 on NPSR1 (1μM tracer).
For the compound `CC(C)N(CC[C@H](c1ccccc1)c1cc(CCNC(=O)c2ccc(CNC(=O)CCc3ccc4n3[B-](F)(F)[N+]3=C(c5ccc[nH]5)C=CC3=C4)cc2)ccc1O)C(C)C` [Tolterodine-BZ-NB590], the “NanoBRET Fold Response” value at CHRM2 (CHRM2, tracer 0.1μM) is given as 3.84; at CHRM2 (CHRM2, tracer 1μM) it was 2.14; on NPSR1 (NPSR1, tracer 0.1μM), 1.12; on NPSR1 (NPSR1, tracer 1μM), 0.99.
Turning to `O=C(CCc1ccc2n1[B-](F)(F)[N+]1=C(c3ccc[nH]3)C=CC1=C2)NCCOCCOCCNC(=O)OCCOCCN1CCN(C2=Nc3ccccc3Sc3ccccc32)CC1` [Quetiapine-a-2-NB590], the “NanoBRET Fold Response” value is listed as 1.56 on CHRM2 (CHRM2, tracer 0.1μM); 1.75 on CHRM2 (CHRM2, tracer 1μM); 0.87 on NPSR1 (NPSR1, tracer 0.1μM); 0.90 at NPSR1 (NPSR1, tracer 1μM).
Turning to `Cc1cc2c(s1)Nc1ccccc1N=C2N1CCN(CCCNC(=O)CCOCCOCCOCCOCCNC(=O)CCc2ccc3n2[B-](F)(F)[N+]2=C(c4ccc[nH]4)C=CC2=C3)CC1` [Olanzapine-a-2-NB590], the “NanoBRET Fold Response” value at CHRM2 (CHRM2, tracer 1μM) was found to be 1.30; on NPSR1 (NPSR1, tracer 0.1μM), 1.01; on NPSR1 (NPSR1, tracer 1μM) it was 1.17.
For `O=C(CCc1ccc2n1[B-](F)(F)[N+]1=C(c3ccc[nH]3)C=CC1=C2)NCc1ccc(C(=O)NCCOCCOCCNCC(O)COc2cccc3ccccc23)cc1` (centres unmarked) [Propranolol-3-NB590], the “NanoBRET Fold Response” value is 1.14 at CHRM2 (CHRM2, 0.1μM); 1.00 at CHRM2 (CHRM2, 1μM); 1.00 at NPSR1 (NPSR1, 0.1μM); 0.98 on NPSR1 (NPSR1, 1μM).
Turning to `CN1CCN(C2=Nc3cc(Cl)ccc3N(CC(=O)NCCOCCOCCOCCOCCNC(=O)CCc3ccc4n3[B-](F)(F)[N+]3=C(c5ccc[nH]5)C=CC3=C4)c3ccccc32)CC1` [Clozapine-c-2-NB590], the “NanoBRET Fold Response” value is listed as 0.99 at CHRM2 (CHRM2, 0.1μM tracer); 0.87 on CHRM2 (CHRM2, 1μM tracer); 1.02 at NPSR1 (NPSR1, 0.1μM tracer); 1.02 at NPSR1 (NPSR1, 1μM tracer).
On to `O=C(CCc1ccc2n1[B-](F)(F)[N+]1=C(c3ccc[nH]3)C=CC1=C2)NCc1ccc(C(=O)NCCOCCC(=O)N[C@@H]2CC[C@@]3(O)[C@H]4Cc5ccc(O)c6c5[C@@]3(CCN4CC3CC3)[C@H]2O6)cc1` [Naltrexone-3-NB590], for which the “NanoBRET Fold Response” value is 0.57 on CHRM2 (CHRM2, tracer 0.1μM); 1.32 on CHRM2 (CHRM2, tracer 1μM); 1.12 at NPSR1 (NPSR1, tracer 0.1μM); 0.92 at NPSR1 (NPSR1, tracer 1μM).
As to `CC(C)N(CC[C@H](c1ccccc1)c1cc(CCNC(=O)CCOCCOCCOCCOCCNC(=O)CCc2ccc3n2[B-](F)(F)[N+]2=C(c4ccc[nH]4)C=CC2=C3)ccc1O)C(C)C` [Tolterodine-2-NB590], the “NanoBRET Fold Response” value on CHRM2 (CHRM2, tracer 0.1μM) is 2.98; on CHRM2 (CHRM2, tracer 1μM) it was 1.51; at NPSR1 (NPSR1, tracer 1μM) it was 1.34.
For `Cc1nc2n(c(=O)c1CCN1CCC(c3noc4cc(F)ccc34)CC1)CCCC2OC(=O)NCCOCCOCCOCCOCCNC(=O)CCc1ccc2n1[B-](F)(F)[N+]1=C(c3ccc[nH]3)C=CC1=C2` (centres unmarked) [Risperidone-2-NB590], the “NanoBRET Fold Response” value on CHRM2 (CHRM2, tracer 0.1μM) worked out at 1.09; at CHRM2 (CHRM2, tracer 1μM), 1.26; on NPSR1 (NPSR1, tracer 0.1μM) it was 1.00; on NPSR1 (NPSR1, tracer 1μM), 0.90.
As for `O=C(CCOCCOCCOCCOCCNC(=O)CCc1ccc2n1[B-](F)(F)[N+]1=C(c3ccc[nH]3)C=CC1=C2)NCCCN1CCN(C2=Nc3cc(Cl)ccc3Nc3ccccc32)CC1` [Clozapine-a-2-NB590], the “NanoBRET Fold Response” value at CHRM2 (CHRM2, 0.1μM tracer) was 1.50; on CHRM2 (CHRM2, 1μM tracer), 1.49; at NPSR1 (NPSR1, 0.1μM tracer), 0.93; on NPSR1 (NPSR1, 1μM tracer) it was 1.15.
Take `COc1ccc2[nH]c(-c3ccc(CNC(=O)CCOCCOCCOCCOCCNC(=O)CCc4ccc5n4[B-](F)(F)[N+]4=C(c6ccc[nH]6)C=CC4=C5)cc3)c(CCNC(C)=O)c2n1` [AzomelatoninICO9-2-NB590]: the “NanoBRET Fold Response” value on CHRM2 (0.1μM tracer) came out at 1.08; at CHRM2 (1μM tracer), 0.86; on NPSR1 (0.1μM tracer), 0.98; on NPSR1 (1μM tracer), 0.96.
On to `CN1CCN(C2=Nc3cc(Cl)ccc3Nc3ccc(CNC(=O)CCOCCOCCOCCOCCNC(=O)CCc4ccc5n4[B-](F)(F)[N+]4=C(c6ccc[nH]6)C=CC4=C5)cc32)CC1` [Clozapine-b-2-NB590], for which the “NanoBRET Fold Response” value was determined as 1.48 at CHRM2 (CHRM2, 0.1μM tracer); 1.99 at CHRM2 (CHRM2, 1μM tracer); 1.05 at NPSR1 (NPSR1, 0.1μM tracer); 0.98 at NPSR1 (NPSR1, 1μM tracer).
Consider `COc1ccccc1N1CCN(CCCCN2C(=O)c3ccc(CNC(=O)CCOCCNC(=O)c4ccc(CNC(=O)CCc5ccc6n5[B-](F)(F)[N+]5=C(c7ccc[nH]7)C=CC5=C6)cc4)cc3C2=O)CC1` [NAN-190-3-NB590], for which the “NanoBRET Fold Response” value at CHRM2 (CHRM2, tracer 0.1μM) was found to be 1.14; on CHRM2 (CHRM2, tracer 1μM) it was 0.95; at NPSR1 (NPSR1, tracer 0.1μM), 1.10; on NPSR1 (NPSR1, tracer 1μM), 1.17.
Taken in the same sequence, the figures for `N#CN=C(NCCCOc1cccc(CN2CCCCC2)c1)NCCNC(=O)CCOCCOCCOCCOCCNC(=O)CCc1ccc2n1[B-](F)(F)[N+]1=C(c3ccc[nH]3)C=CC1=C2` [Aminopotentidine-2-NB590] were 1.66, 1.68, 0.99 and 1.01.
For `CN(C)CCC=C1c2ccccc2CCc2ccc(C(=O)NCCNC(=O)CCOCCOCCOCCOCCNC(=O)CCc3ccc4n3[B-](F)(F)[N+]3=C(c5ccc[nH]5)C=CC3=C4)cc21` [Amitriptyline-b-2-NB590], the “NanoBRET Fold Response” value was 2.20 at CHRM2 (setting [1]), 1.55 at CHRM2 (setting [2]), 0.95 at NPSR1 (setting [1]) and 1.15 on NPSR1 (setting [2]).
As for `CN(CCC=C1c2ccccc2CCc2ccccc21)C(=O)CCOCCOCCOCCOCCNC(=O)CCc1ccc2n1[B-](F)(F)[N+]1=C(c3ccc[nH]3)C=CC1=C2` [Amitriptyline-e-2-NB590], the “NanoBRET Fold Response” value on CHRM2 (tracer at 1μM) came out at 1.05.
